The subject of one data set is ARN8 cells. Briefly: PI flow cytometry, sub-G1 cells, ARN8. The following applies: ARN8 72 h. The data set is classed as cell-based, human. The procedure: (§1) Cell cycle distribution analysis was performed on a Becton Dickinson FACScan flow cytometer or FACSCalibur (BD Biosciences) following staining with propidium iodide (PI) or dual labeling with BrdU and PI[36]. These assays were analyzed using CellQuest Pro (BD Biosciences).
(In general: A flow cytometer gives signals particle by particle.)

In a further data set the test system is HNDF cells. Briefly: PI flow cytometry, sub-G1 cells, HNDF. The following applies: DMSO 72 h + 48 h, 2 μM nutlin-3a last 48 h. Type of data set: cell-based, human. The procedure: as §1
Data set [1] deals with U2OS cells. Briefly: PI flow cytometry, sub-G1 cells, U2OS. Type of data set: cell-based. To be noted: DMSO 72 h + 48 h, 2 μM nutlin-3a last 48 h. The procedure: as §1
Another data set deals with MV411 cells. Briefly: PI flow cytometry, sub-G1 cells, MV411. Type of data set: cell-based. To be noted: DMSO 72 h + 48 h, 2 μM nutlin-3a last 48 h. The procedure: as §1
In data set [2] the test system is U2OS cells. Briefly: Annexin V/PI apoptosis flow cytometry. Type of data set: cell-based. The following applies: HZ05 72 h, washed, nutlin-3a 48 h. The method, then:
Fig. 7 HZ05 increases p53 levels in S-phase cells. a U2OS cells were treated with DMSO (vehicle) or HZ05 (1 μM) for 72 h. The upper left panel is a representative dot plot showing the gating strategy for cells expressing high p53 levels (blue: HZ05 treated and red: DMSO treated). […] A representative histogram of the fluorescence intensity of FITC-p53 in S-phase cells is shown in the lower right panel. Bar graphs show the average of three independent experiments. Unpaired t-test was employed to assess statistical significance using GraphPad Prism version 7 (****p < 0.0001 and ***p < 0.001). b U2OS cells were pretreated with HZ05 for 72 h, washed with medium containing DMSO or nutlin-3a, and then provided with fresh medium containing DMSO or nutlin-3a. After an additional 48 h, Annexin V and PI staining was analyzed by flow cytometry. The average of two independent experiments ± SD is shown. c Hypothetical model describing the combination of DHODH inhibition with mdm2 antagonists. […] Inhibition of p53 degradation in the form of an mdm2 antagonist leads to death of cells in S-phase
For the detection of apoptotic cells, the Annexin V-FITC Apoptosis detection kit (Ab#14085) was used with analysis conducted using FlowJo software V10.2.

The next data set concerns ARN8 xenograft. Briefly: ARN8 subcutaneous xenograft. Type of data set: in vivo. To be noted: ARN8 xenograft; (R)-HZ05 75 mg/kg q.d. s.c. or nutlin-3a 50 mg/kg b.i.d. orally. The procedure: All animal xenograft experiments were approved by the Norwegian Animal Research Authority and conducted according to The European Convention for the Protection of Vertebrates Used for Scientific Purposes. […] The health status and weight of the mice were monitored daily and they were randomized in a non-blinded manner into 4 groups when tumor volumes reached 30–40 mm^3. […] Tumor volumes were measured every second day by a digital caliper using the following ellipsoid formula: Volume = π (length × width × height)/6.
To determine the efficacy of (R)-HZ05 in combination with nutlin-3a, 4 groups of NSG mice (n = 8 per group) were subcutaneously injected in the flank region with a single 100 μL injection of 2 × 10^6 ARN8 cells in a solution of PBS:Matrigel (volume ratio 3:1). Treatment was initiated when tumors reached ~50 mm^3. The maximum tolerated dose for this combination of drugs was previously determined for the strain we used. The endpoint of the experiment was determined by the tumor size ([…]) weight loss, and general condition of the mice according to The Norwegian Animal Research Authority.

Data set [3] in a line: Pharmacokinetic study, nutlin-3a single or co-administered with (R)-HZ05. The data set is classed as in vivo, NOD-SCID mice. To be noted: mice; nutlin-3a 50 mg kg-1 oral + (R)-HZ05 75 mg kg-1 s.c. The method, then:
collected from the retro-orbital plexus of three mice per group per time point at the following times: pre-dose, 0.08, 0.25, 0.5, 1, 2, 4, 8, and 24 h. Samples were collected into tubes with 20 % potassium-EDTA solution. Plasma was separated at 4000 rpm for 10 minutes at 4 °C and stored at -70 °C until analysis. 25 µL of study sample or spiked plasma calibration standards were added to individual tubes followed by 100 µL of Glipizide at 500 ng mL-1 as an internal standard. Samples were centrifuged at 4000 rpm at 4 °C for 10 minutes. 100 µL of cleared supernatant was transferred to 96-well plates and analyzed using a Waters ACQUITY UPLC connected to an AB Sciex API 4000 QTRAP in MRM mode with positive electrospray ionization with an ion spray voltage of 5500 V. The mobile phase was A: 0.1 % formic acid in acetonitrile and B: 0.1 % formic acid in water through a phenomenex Kinetex EVO C18 (5 µm, 100 × 4.6 mm) kept at 45 °C. […]
Samples were centrifuged at 4000 rpm at 4 °C for 10 minutes. 100 µL of cleared supernatant was transferred to 96-well plates and analyzed using a Waters ACQUITY UPLC connected to an AB Sciex API 4000 QTRAP in MRM mode with positive electrospray ionization with an ion spray voltage of 5500 V. The mobile phase was A: 0.1 % formic acid in acetonitrile and B: 0.1 % formic acid in water through a phenomenex Kinetex EVO C18 (5 µm, 100 × 4.6 mm) kept at 45 °C. […]

As for `COc1ccc(C2=N[C@@H](c3ccc(Cl)cc3)[C@@H](c3ccc(Cl)cc3)N2C(=O)N2CCNC(=O)C2)c(OC(C)C)c1` [nutlin-3a, reference compound], the “DMSO control subtracted effect (cells in sub-G1)” value was 0.05 with ARN8 cells (HZ05 0 nM + nutlin-3a 5 µM), 0.07 in the data set with ARN8 cells (HZ05 0 nM + nutlin-3a 10 µM), 0.12 in the data set on ARN8 cells (HZ05 0 nM + nutlin-3a 15 µM) and 0.10 with ARN8 cells (HZ05 0 nM + nutlin-3a […]). Also, the sub-G1 cells in the data set on ARN8 cells (nutlin-3a 1 μM) was determined as 0.8%; in the data set with ARN8 cells (nutlin-3a 2.5 μM), 1.59%; in the data set with ARN8 cells (nutlin-3a 5 μM), 3.52%; in the data set with HNDF cells, 1.2%; with U2OS cells [1] it was 1.1%; in the data set with MV411 cells it was 37.2%. In the data set on U2OS cells [2], the “effect of nutlin-3a after HZ05 pre-treatment and wash-out” value is “triggered cell death”. Further, the “xenograft tumor growth, single agent” value in the data set with ARN8 xenograft was “ineffective”. The “half-life on co-administration with (R)-HZ05” value in data set [3] is “not prolonged”.

(Values after PMC5856786, “A DHODH inhibitor increases p53 synthesis and enhances tumor cell killing by p53 degradation blockage” (Nature Communications, 2018).)
